# Test results: article PMC6921279 (Frontiers in Endocrinology, 2019)
# Columns and labels:
# PYK2 = assay: CRF-induced PYK2 phosphorylation at Tyr402 in COS-7 cells expressing HA-CRF1R; type: cell-based; details: PP2 (discussion)
# Method: (§1) COS-7 cells (from the American Type Culture Collection) were cultured at 37°C in a humidified atmosphere of 95% air, 5% CO2, in DMEM supplemented with 10% FBS, 100 μg/ml streptomycin, and 100 units/ml penicillin (COS-7 growth medium). Transient transfections were performed using LipofectAMINE (Life Technologies: Gaithersburg, MD) as described previously ([27]). Cells were seeded at 8 × 10^5 cells/10-cm dish in COS-7 medium and cultured for 3 days before transfection. COS-7 cells were transfected in 5 ml/dish OptiMEM containing 10 μg/ml LipofectAMINE with empty vector, pcDNA3 encoding the HA-CRF1R or the HA-CRF1R-Δ386 mutant. […]
# (§2) The protocols for measuring total and phosphorylated ERK1/2, c-Src, PYK2, Akt, and EGFR have been previously published ([28], [29]). […] The labeled bands were quantified using the Quantity One 4.6.3 software program (Bio-Rad).
# (§3) Figure 6 CRF mediates EGFR phosphorylation at Tyr^845 and activation of PYK2. […] Total cell lysates were separated by SDS-PAGE and analyzed by immunoblotting with anti-p-EGFR Tyr^845 (A,B) or anti-p-PYK2 Tyr^402 (E), as described in Materials and Methods. EGFR and ERK1/2 phosphorylation were quantitated by densitometry, and mean values were plotted from three to five independent experiments. […] Src and EGFR were quantitated by densitometry, and mean values were plotted from three independent experiments. […]
# [1] = system: CRF1R-mediated Akt phosphorylation; assay: CRF-induced Akt phosphorylation at Ser473 in COS-7 cells expressing HA-CRF1R; type: cell-based, human; details: PP2 10 μM, 30 min pretreatment; 100 nM CRF, 5 min
# Method: (§4) Plasmid pRK5 encoding the carboxyl terminus of βARK that contains its βγ-binding domain (ct-βARK) was kindly provided by Dr. W. Koch (Center for Translational Medicine, Temple University, Philadelphia, PA), which is a scavenger for G protein βγ subunits ([25]). […] Plasmid pUSEamp encoding dominant-negative Akt-K179M (dn-Akt) was from Upstate Biotechnology (Lake Placid, NY).
# (§5) COS-7 cells (from the American Type Culture Collection) were cultured at 37°C in a humidified atmosphere of 95% air, 5% CO2, in DMEM supplemented with 10% FBS, 100 μg/ml streptomycin, and 100 units/ml penicillin (COS-7 growth medium). Transient transfections were performed using LipofectAMINE (Life Technologies: Gaithersburg, MD) as described previously ([27]). Cells were seeded at 8 × 10^5 cells/10-cm dish in COS-7 medium and cultured for 3 days before transfection. COS-7 cells were transfected in 5 ml/dish OptiMEM containing 10 μg/ml LipofectAMINE with empty vector, pcDNA3 encoding the HA-CRF1R or the HA-CRF1R-Δ386 mutant. […] After replacing the transfection medium with fresh growth medium, transfected COS-7 cells were cultured for 1 day. Subsequently, cells were re-seeded in 6-well plates and cultured for an additional day prior to the experiment.
# The protocols for measuring total and phosphorylated ERK1/2, c-Src, PYK2, Akt, and EGFR have been previously published ([28], [29]). After cells were cultured to 60–70% confluence, they were serum-deprived for 24 h. On the day of the experiment, cells were treated with the indicated ligands and inhibitors. […] After treatment, cells were placed on ice, the media was aspirated, and the cells were washed twice with ice-cold PBS and lysed in 100 μl of Laemmli sample buffer 1X. The lysates were briefly sonicated, heated at 95°C for 5 min, and centrifuged for 5 min at 14,000 rpm. Resulting supernatants were loaded in separate lanes of a 10% SDS-PAGE gels and electrophoresed. Next, Western transfer on to PDVF membranes was completed. The Western blots were then probed with specific antibodies targeting phosphorylated and non-phosphorylated forms of ERK1/2, c-Src, PYK2, Akt, and EGFR for primary immunodetection. […] The labeled bands were quantified using the Quantity One 4.6.3 software program (Bio-Rad).
# Figure 7 CRF mediates Akt activation. […] Total cell lysates were separated by SDS-PAGE and analyzed by immunoblotting with anti-p-Akt Ser^473, as described in Materials and Methods. Akt phosphorylation was quantitated by densitometry, and mean values were plotted from three to five independent experiments. […]
# Src = assay: CRF-induced Src phosphorylation at Tyr416 in COS-7 cells expressing HA-CRF1R; type: cell-based; details: 10 μM PP2, 30 min pretreatment; 100 nM CRF, 5 min
# Method: COS-7 cells (from the American Type Culture Collection) were cultured at 37°C in a humidified atmosphere of 95% air, 5% CO2, in DMEM supplemented with 10% FBS, 100 μg/ml streptomycin, and 100 units/ml penicillin (COS-7 growth medium). Transient transfections were performed using LipofectAMINE (Life Technologies: Gaithersburg, MD) as described previously ([27]). Cells were seeded at 8 × 10^5 cells/10-cm dish in COS-7 medium and cultured for 3 days before transfection. COS-7 cells were transfected in 5 ml/dish OptiMEM containing 10 μg/ml LipofectAMINE with empty vector, pcDNA3 encoding the HA-CRF1R or the HA-CRF1R-Δ386 mutant. […] After replacing the transfection medium with fresh growth medium, transfected COS-7 cells were cultured for 1 day. […]
# as §2
# Figure 5 Role of Src tyrosine kinase in CRF-stimulated ERK1/2 phosphorylation. […] Total cell lysates were separated by SDS-PAGE and analyzed by immunoblotting with anti-p-Src Tyr^416 (A,B) or anti-p-ERK1/2 Thr^202/Tyr^204 (C–E), as described in Materials and Methods. Src, PYK2, and ERK1/2 phosphorylation were quantitated by densitometry, and mean values were plotted from three to five independent experiments. […]
# [2] = system: CRF1R-mediated ERK1/2 phosphorylation; assay: Modulation of CRF-stimulated ERK1/2 phosphorylation in COS-7 cells expressing HA-CRF1R; type: cell-based; details: 100 nM CRF, 5 min
# Method: as §4, §5
# The protocols for measuring total and phosphorylated ERK1/2, c-Src, PYK2, Akt, and EGFR have been previously published ([28], [29]). After cells were cultured to 60–70% confluence, they were serum-deprived for 24 h. On the day of the experiment, cells were treated with the indicated ligands and inhibitors. […] After treatment, cells were placed on ice, the media was aspirated, and the cells were washed twice with ice-cold PBS and lysed in 100 μl of Laemmli sample buffer 1X. The lysates were briefly sonicated, heated at 95°C for 5 min, and centrifuged for 5 min at 14,000 rpm. Resulting supernatants were loaded in separate lanes of a 10% SDS-PAGE gels and electrophoresed. Next, Western transfer on to PDVF membranes was completed. The Western blots were then probed with specific antibodies targeting phosphorylated and non-phosphorylated forms of ERK1/2, c-Src, PYK2, Akt, and EGFR for primary immunodetection. After blots were probed with horseradish peroxidase-conjugated secondary antibody, protein bands were visualized with enhanced chemiluminescence ECL reagent (Amersham Pharmacia Biotech, Piscataway, NJ or Pierce Biotechnology, Rockford, IL) and scanned using the GS-800 Calibrated Imaging Densitometer (Bio-Rad). The labeled bands were quantified using the Quantity One 4.6.3 software program (Bio-Rad).
# Total cell lysates were separated by SDS-PAGE and analyzed by immunoblotting with anti-p-ERK1/2 Thr^202/Tyr^204, as described in Materials and Methods. ERK1/2 phosphorylation was quantitated by densitometry, and mean values were plotted from five independent experiments.
# Total cell lysates were separated by SDS-PAGE and analyzed by immunoblotting with anti-p-ERK1/2 Thr^202/Tyr^204 (A–D) or anti-p-EGFR Tyr^1068 (E), as described in Materials and Methods. ERK1/2 and EGFR phosphorylation were quantitated by densitometry, and mean values were plotted from three to five independent experiments.
# Total cell lysates were separated by SDS-PAGE and analyzed by immunoblotting with anti-p-ERK1/2 Thr^202/Tyr^204, as described in Materials and Methods. ERK1/2 phosphorylation was quantitated by densitometry, and mean values were plotted from three to five independent experiments.
# EGFR Tyr845 = assay: CRF-induced EGFR phosphorylation at Tyr845 in COS-7 cells expressing HA-CRF1R; type: cell-based; details: 10 μM PP2, 30 min pretreatment; 100 nM CRF, 5 min
# Method: as §1, §2, §3
# β2-adrenergic receptor = system: β2-adrenergic receptor; set-up: method as in PMID 15489914, PMID 11278940; details: A431 cells; cited from earlier work
# Source text: Moreover, there is evidence that Tyr phosphorylation of GPCRs plays a role in mediating GPCR-Src interactions ([43]). […] This residue lies within a canonical Src SH2 binding domain, and it is proposed that Src directly binds the Tyr-phosphorylated β2-AR.
# [3] = system: MEK1/2-mediated phosphorylation of ERK1/2; set-up: method as in PMID 16484629, PMID 10098484, PMID 14670995, PMID 11117536, PMID 12970163; details: CRF1R and CRF2R signaling, various cell lines; cited from earlier work
# rat cardiomyocytes = system: rat cardiomyocytes; set-up: method as in PMID 12970163; details: CRF2R activation by Ucn2 and Ucn3; cited from earlier work
smiles,measurement,setting,value
CC(C)(C)n1nc(-c2ccc(Cl)cc2)c2c(N)ncnc21 [PP2],"effect on CRF-stimulated activation of Src, PYK2, the EGFR, and ERK1/2",PYK2,"markedly reduced or abolished the CRF-stimulated activation of Src, PYK2, the EGFR, and ERK1/2"
same,effect on CRF-induced Akt activation,[1],completely inhibited
same,effect on CRF-induced Src phosphorylation,Src,CRF-induced Src phosphorylation was prevented
same,effect on CRF-stimulated ERK1/2 phosphorylation,"[2]; 10 μM PP2, 30 min pretreatment",abolished CRF-stimulated ERK1/2 phosphorylation
same,IC50,"[2]; PP2 0–20 μM, 30 min pretreatment, read-out: IC50, inhibition of CRF-stimulated ERK1/2 phosphorylation",2000 nM
same,effect on CRF-induced EGFR Tyr845 phosphorylation,EGFR Tyr845,blocked
CC(C)NCC(O)c1ccc(O)c(O)c1 (stereo not drawn) [isoproterenol],phosphorylation of β2-AR,β2-adrenergic receptor,results in phosphorylation of the receptor on Tyr^305
COc1cccc(-c2cc(=O)c3ccccc3o2)c1N [PD98059],effect on ERK1/2 activation,[3],inhibiting ERK1/2 activation
CCCC[C@@H](C)/C=C(C)/C=C(\C)C(=O)NC1=C[C@@](O)(/C=C/C=C/C=C/C(=O)NC2=C(O)CCC2=O)[C@@H]2O[C@@H]2C1=O [manumycin A],effect on ERK1/2 phosphorylation,rat cardiomyocytes,abolish ERK1/2 phosphorylation
